Experiment [1] has as its system A2780 ovarian cancer cells. Kind of experiment: Proliferation assay (Alamar Blue). The settings on record: Homo sapiens, 96 h, 4-day incubation, read-out: pIC50 (negative log value of the IC50-value) (converted). Type of experiment: cell-based. The procedure: Cellular activity of the compounds of formula (I) was determined on A2780 tumour cells using a colorimetric assay for cell toxicity or survival (see example C.2).
The human A2780 ovarian cancer cells were a kind gift from Dr. T. C. Hamilton (Fox Chase Cancer Centre, Pennsylvania, U.S.A.). The cells were cultured in RPMI 1640 medium supplemented with 2 mM L-Glutamine, 50 μg/ml gentamicin and 10% fetal calf serum.
Resazurin was purchased from Aldrich (Prod. No. 199303). Potassium ferrocyanide, potassium ferricyanide, KH2PO4 and K2HPO4 were purchased from Sigma (Prod. Nos. P9387, P8131, P5655 and P8281, respectively).
Potassium Phosphate Buffer 0.1 M (PPB) was made as follows: 2.72 gram KH2PO4 and 13.86 gram K2HPO4 were dissolved in 500 ml milli-Q H2O, the pH was adjusted to pH 7.4 and the volume was brought to 1 liter with milli-Q H2O; the buffer was filter sterilised and stored at room temperature. Resazurin stock solution (PPB-A) was prepared fresh by dissolving 45 mg resazurin in 15 ml PBS. 30 mM potassium ferricyanide (PPB-B) was prepared by dissolving 0.987 gram potassium ferricyanide in 100 ml PPB. 30 mM potassium ferrocyanide (PPB-C) was prepared by dissolving 1.266 gram potassium ferrocyanide in 100 ml PPB.
Mixture of PPB-A, PPB-B and PPB-C was prepared by mixing equal volumes of the respective solutions. Resazurin work solution (herein termed “Alamar Blue” solution) was prepared by diluting said mixture 20× (vol/vol) in PPB and filter sterilising; the Alamar Blue solution could be kept at 4° C. for a maximum of 2 weeks.
For experiments in 384 wells plates the cells were seeded at a density of 5×10^3 cells/ml in Falcon 384-well culture plates (Life Technologies, Merelbeke, Belgium), black with clear bottom, in 45 μl culture medium. Cells were allowed to adhere to plastic for 24 hr. The tested compound was pre-diluted (1/50 in culture medium) and 5 μl pre-diluted compound was added to the wells. Following 4-day incubation, 10 μl of the Alamar Blue solution was added to each well and the cells were further incubated for 5 hrs (A2780) at 37° C. The fluorescence intensity was measured for each well with a Fluorescence plate reader (Fluorskan, Labsystems, 540 nm excitation and 590 nm emission)
The antiproliferative activity was calculated as percentage of remaining viable cells in treated versus control (untreated cells) conditions. Within an experiment, the result for each experimental condition is the mean of 3 replicate wells. When appropriate, the experiments were repeated to establish full concentration-response curves. When appropriate, IC50-values (concentration of the drug, needed to reduce cell growth to 50% of the control) were computed using probit analysis for graded data (Finney, D. J., Probit Analyses, 2nd Ed. Chapter 10, Graded Responses, Cambridge University Press, Cambridge 1962). Herein the effects of test compounds are expressed as pIC50 (the negative log value of the IC50-value) (see Table 4).

Another experiment deals with p53 in A2780 cells. The experiment is described as follows: p53 ELISA (preservation of p53 in A2780 cells). The settings on record: Homo sapiens, treated with compound for 16 hours, read-out: p53-elisa LAD (lowest dose giving at least 140% of the value for p53 present in the control). It counts as cell-based. The procedure:
The capacity of the compounds to preserve p53 in A2780 cells was measured with the p53 enzyme linked immunosorbent assay (ELISA). The p53 assay is a “sandwich” enzyme immunoassay employing two polyclonal antibodies. A polyclonal antibody, specific for the p53 protein, has been immobilized onto the surface of the plastic wells. Any p53 present in the sample to be assayed will bind to the capture antibody. The biotinylated detector polyclonal antibody also recognizes p53 protein, and will bind to any p53, which has been retained by the capture antibody. The detector antibody, in turn, is bound by horseradish peroxidase-conjugated streptavidin. The horseradish peroxidase catalyses the conversion of the chromogenic substrate o-phenylene diamine, the intensity of which is proportional to the amount of p53 protein bound to the plate. The coloured reaction product is quantified using a spectrophotometer. Quantitation is achieved by the construction of a standard curve using known concentrations of purified recombinant HIS tagged p53 protein (see example C.1).
A2780 cells (ATCC) were cultivated in RPMI 1640 supplemented with 10% fetal calf serum (FCS), 2 mM L-glutamine and gentamycin at 37° C. in a humidified incubator with 5% CO2.
A2780 cells were seeded at 20.000 cells per well in a 96 well plate, cultured for 24 hours and treated with compound for 16 hours at 37° C. in a humidified incubator. After incubation, the cells were washed once with phosphate-buffered saline and 30 μl, per well, low salt RIPA buffer (20 mM tris, pH7.0, 0.5 mM EDTA, 1% Nonidet P40, 0.5% DOC, 0.05% SDS, 1 mM PMSF, 1 μg/ml aprotinin and 0.5 μ/ml leupeptin) was added. Plates were placed on ice for 30 minutes to complete the lysis. p53 protein was detected in de lysates by using the sandwich ELISA, described below.
High binding polystyrene EIA/RIA 96 well plates (Costar 9018) were coated with the capture antibody pAb1801 (Abcam ab28-100) at a concentration of 1 μg/ml in coating buffer (0.1 M NaHCO3 pH8.2), 50 μl per well. The antibody was allowed to adhere overnight at 4° C. Coated plates were washed once with phosphate-buffered saline (PBS)/0.05% Tween 20 and 300 μl of blocking buffer (PBS, 1% bovine serum albumins (BSA)) was added, for an incubation period of 2 hours at room temperature. Dilutions of purified recombinant HIS tagged p53 protein, ranging from 3-200 ng/ml, were made in blocking buffer and used as standards.
Plates were washed twice with PBS/0.05% Tween 20 and blocking buffer or standards were added at 80 μl/well. To the standards, 20 μl of lysis buffer was added. The samples were added to the other wells at 20 μl lysate/well. After an overnight incubation at 4° C., plates were washed twice with PBS/0.05% Tween 20. Aliquots of 100 μl secondary polyclonal antibody p53(FL-393) (Tebubio, sc-6243) at a concentration of 1 μg/ml in blocking buffer were added to each well and allowed to adhere for 2 hours at room temperature. Plates were washed three times with PBS/0.05% Tween 20. Detection antibody anti-rabbit HRP (sc-2004, Tebubio) at 0.04 μg/ml in PBS/1% BSA was added and incubated for 1 hour at room temperature. Plates were washed three times with PBS/0.05% Tween 20 and 100 μl of substrate buffer was added (substrate buffer was prepared shortly before use by adding 1 tablet of 10 mg o-phenylene diamine (OPD) from Sigma and 125 μl 3% H2O2 to 25 ml OPD buffer: 35 mM citric acid, 66 mM Na2HPO4, pH5.6). After 5 to 10 minutes, colour reaction was stopped by adding 50 μl stop buffer (1 M H2SO4) per well. The absorbance at dual wavelengths of 490/655 nm was measured using a Biorad micro plate reader and the results were then analyzed.
For each experiment, controls (containing no drug) and a blank incubation (containing no cells or drugs) were run in parallel. The blank value was subtracted from all control and sample values. For each sample, the value of p53 (in absorbance units) was expressed as the percentage of the value for p53 present in the control. […]
Background: ELISA stands for enzyme-linked immunosorbent assay.

These results are taken from patent publication US8288377B2, “Inhibitors of the interaction between MDM2 and p53” (Janssen Pharmaceutica N.V., priority 2007, dated 2012).

As a reminder, the IC50 is the concentration at which inhibition is half-maximal. Take `c1ccc2c(CCN3CCCc4cc(Nc5ccncc5)ccc43)c[nH]c2c1` [Compound 23]: the IC50 in experiment [1] is 3.02 µM. The minimal effective concentration with p53 in A2780 cells is > 10 µM.
For `CC1CN(CCc2c[nH]c3ccccc23)c2ccc(Nc3ccnc4c3CCC4O)cc2O1` (centres unmarked) [Compound 24], the 50% inhibitory concentration (IC50) in experiment [1] was 5.62 µM. Also, the minimal effective concentration in the experiment on p53 in A2780 cells came to 3 µM.
The matching figures for `Cc1cccc2c(CCN3CC4(CCCCC4)Oc4cc(Nc5ccnc6c5CCC6O)ccc43)c[nH]c12` (centres unmarked) [Compound 25]: ~5.62 µM and 0.03 µM.
Turning to `OC1CCc2c(Nc3ccc4c(c3)OC3(CCSCC3)CN4CCc3c[nH]c4ccccc34)ccnc21` (centres unmarked) [Compound 26], the IC50 in experiment [1] is ~6.03 µM. The minimal effective concentration with p53 in A2780 cells amounted to 0.03 µM.
The matching figures for `CCC1(C)CN(CCc2c[nH]c3ccccc23)c2ccc(Nc3ccnc4c3CCC4O)cc2O1` (centres unmarked) [Compound 27]: 5.13 µM and 1 µM.
For `OC1CCc2c(Nc3ccc4c(c3)OC3(CCCC3)CN4CCc3c[nH]c4ccccc34)ccnc21` (centres unmarked) [Compound 28], in that order: 4.9 µM and 3 µM.
The matching figures for `OC1CCc2c(Nc3ccc4c(c3)OC3(CCCCC3)CN4CCc3c[nH]c4ccccc34)ccnc21` (centres unmarked) [Compound 29]: ~5.13 µM and 10 µM.
As to `OC1CCc2c(Nc3ccc4c(c3)OC3(CCOCC3)CN4CCc3c[nH]c4ccccc34)ccnc21` (centres unmarked) [Compound 30], in experiment [1], the IC50 was 6.31 µM. Further, in the experiment on p53 in A2780 cells, the minimal effective concentration is > 10 µM.
Regarding `OC1CCc2c(Nc3ccc4c(c3)OC3(CCNCC3)CN4CCc3c[nH]c4ccccc34)ccnc21` (centres unmarked) [Compound 31], in experiment [1], the IC50 is > 10 µM. Further, the minimal effective concentration in the experiment with p53 in A2780 cells was > 10 µM.
Consider `CC(C)N1CCC2(CC1)CN(CCc1c[nH]c3ccccc13)c1ccc(Nc3ccnc4c3CCC4O)cc1O2` (centres unmarked) [Compound 33], for which the IC50 in experiment [1] was 2.19 µM. The minimal effective concentration in the experiment on p53 in A2780 cells was > 10 µM.
The matching figures for `Cc1cccc2c(CCN3CC4(CCCCC4)Oc4cc(Nc5ccnc(CO)c5)ccc43)c[nH]c12` [Compound 34]: 4.37 µM and 0.3 µM.
For `OCc1cc(Nc2ccc3c(c2)OC(c2ccoc2)CN3CCc2c[nH]c3ccccc23)ccn1` (centres unmarked) [Compound 35], in that order: ~5.13 µM and 3 µM.
The matching figures for `CC(C)N1CCC2(CC1)CN(CCc1c[nH]c3ccccc13)c1ccc(Nc3ccnc(CO)c3)cc1O2` [Compound 36]: 3.39 µM and > 10 µM.
As to `Cc1cccc2c(CCN3CC(C)Oc4cc(Nc5ccnc(CO)c5)ccc43)c[nH]c12` (centres unmarked) [Compound 37], the half-inhibitory concentration (IC50) in experiment [1] is 3.55 µM. For the same compound, in the experiment on p53 in A2780 cells, the minimal effective concentration is > 10 µM.
For `Cc1cccc2c(CCN3CC(C)(C)Oc4cc(Nc5ccnc(CO)c5)ccc43)c[nH]c12` [Compound 38], in that order: 3.72 µM and > 10 µM.
For `OCc1cc(Nc2ccc3c(c2)OC2(CCSCC2)CN3CCc2c[nH]c3ccccc23)ccn1` [Compound 39], the IC50 in experiment [1] was ~4.79 µM. Further, the minimal effective concentration in the experiment with p53 in A2780 cells was > 10 µM.
For `OCc1cc(Nc2ccc3c(c2)OC2(CCCC2)CN3CCc2c[nH]c3ccccc23)ccn1` [Compound 40], in that order: ~4.79 µM and > 10 µM.
For `OCc1cc(Nc2ccc3c(c2)OC2(CCCCC2)CN3CCc2c[nH]c3ccccc23)ccn1` [Compound 41], in that order: ~4.79 µM and > 10 µM.
The matching figures for `Cc1cccc2c(CCN3CC(C)Oc4cc(Nc5ccnc6c5CCC6O)ccc43)c[nH]c12` (centres unmarked) [Compound 42]: 4.79 µM and > 10 µM.
Take `CN1CCC2(CC1)CN(CCc1c[nH]c3ccccc13)c1ccc(Nc3ccnc(CO)c3)cc1O2` [Compound 43]: the IC50 in experiment [1] is ~5.01 µM. Further, the minimal effective concentration in the experiment with p53 in A2780 cells is > 10 µM.
For `Cc1cccc2c(CCN3CC(C)(C)Oc4cc(Nc5ccnc6c5CCC6O)ccc43)c[nH]c12` (centres unmarked) [Compound 44], in that order: 5.01 µM and > 10 µM.
For `OCc1cc(Nc2ccc3c(c2)OC2(CCOCC2)CN3CCc2c[nH]c3ccccc23)ccn1` [Compound 45], in that order: 6.31 µM and > 10 µM.
The matching figures for `CCC1(C)CN(CCc2c[nH]c3ccccc23)c2ccc(Nc3ccnc(CO)c3)cc2O1` (centres unmarked) [Compound 46]: 6.92 µM and > 10 µM.
Consider `COc1cccc2c(CCN3CCOc4cc(Nc5ccncc5)ccc43)c[nH]c12` [Compound 47], for which the IC50 in experiment [1] is ~6.46 µM. In addition, the minimal effective concentration in the experiment on p53 in A2780 cells was > 10 µM.
The matching figures for `Cc1cccc2c(CCN3CCOc4cc(Nc5ccncc5)ccc43)c[nH]c12` [Compound 48]: 3.47 µM and > 10 µM.
For `c1ccc2c(CCN3CCOc4cc(Nc5ccncc5)ccc43)coc2c1` [Compound 49], in that order: 4.79 µM and > 10 µM.
The matching figures for `Fc1cc(Nc2ccncc2)cc2c1N(CCc1c[nH]c3ccccc13)CCO2` [Compound 50]: 8.13 µM and > 10 µM.
Turning to `CN1CCC2(CC1)CN(CCc1c[nH]c3ccccc13)c1ccc(Nc3ccncc3)cc1O2` [Compound 51], the IC50 in experiment [1] was 3.02 µM. The minimal effective concentration in the experiment on p53 in A2780 cells is > 10 µM.
